Values of other authors in patent US10501455B2, “Inhibitors of leukotriene A4 hydrolase” (Celtaxsys, Inc., priority 2013, dated 2019).

Assays:
[1] = molecular target: T1, LTA4-h (Mus musculus, UniProt P24527); details: oral administration, mouse blood ex vivo; cited from earlier work
T1 construct: host or cells: mouse blood ex vivo
T1 sequence (P24527 1-611): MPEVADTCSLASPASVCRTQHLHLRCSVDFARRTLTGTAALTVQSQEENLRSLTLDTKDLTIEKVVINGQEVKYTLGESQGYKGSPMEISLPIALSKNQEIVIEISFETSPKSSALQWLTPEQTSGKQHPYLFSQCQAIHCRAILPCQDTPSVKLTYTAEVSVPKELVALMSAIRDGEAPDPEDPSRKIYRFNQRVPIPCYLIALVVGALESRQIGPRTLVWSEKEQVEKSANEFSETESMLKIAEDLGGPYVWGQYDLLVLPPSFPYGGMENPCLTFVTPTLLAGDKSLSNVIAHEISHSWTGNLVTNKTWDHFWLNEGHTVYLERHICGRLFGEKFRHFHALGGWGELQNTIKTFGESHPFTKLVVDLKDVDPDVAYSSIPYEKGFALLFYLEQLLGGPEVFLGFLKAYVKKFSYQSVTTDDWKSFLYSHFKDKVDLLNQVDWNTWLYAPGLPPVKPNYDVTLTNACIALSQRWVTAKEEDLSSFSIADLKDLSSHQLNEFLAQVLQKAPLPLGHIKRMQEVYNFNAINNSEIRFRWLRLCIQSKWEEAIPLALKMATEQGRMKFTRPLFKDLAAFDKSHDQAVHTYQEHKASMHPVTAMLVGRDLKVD

[2] = molecular target: T2, LTA4-h (Rattus norvegicus, UniProt P30349); details: oral administration, rat peritoneum in vivo; cited from earlier work
T2 construct: host or cells: rat peritoneum in vivo
T2 sequence (P30349 1-611): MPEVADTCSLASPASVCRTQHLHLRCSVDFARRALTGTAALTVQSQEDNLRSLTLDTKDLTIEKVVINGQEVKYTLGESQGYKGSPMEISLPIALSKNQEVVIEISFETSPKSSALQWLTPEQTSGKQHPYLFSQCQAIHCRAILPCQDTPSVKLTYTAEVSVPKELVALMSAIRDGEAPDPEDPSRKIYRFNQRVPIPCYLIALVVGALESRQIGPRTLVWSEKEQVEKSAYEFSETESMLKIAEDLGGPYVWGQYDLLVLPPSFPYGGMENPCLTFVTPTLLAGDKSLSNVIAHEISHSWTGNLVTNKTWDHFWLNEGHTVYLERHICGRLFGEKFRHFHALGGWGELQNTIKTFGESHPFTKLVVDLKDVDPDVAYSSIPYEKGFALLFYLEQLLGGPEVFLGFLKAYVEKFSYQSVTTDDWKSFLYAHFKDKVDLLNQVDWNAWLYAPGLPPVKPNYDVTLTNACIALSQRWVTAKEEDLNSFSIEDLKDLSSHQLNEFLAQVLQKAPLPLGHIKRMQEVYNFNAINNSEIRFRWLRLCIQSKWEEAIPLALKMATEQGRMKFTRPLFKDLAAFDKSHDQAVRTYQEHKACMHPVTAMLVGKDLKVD

[3] = test system: colitis; details: eight weeks of treatment, cotton top tamarins; cited from earlier work

## CN(CCCOc1ccc(Cc2ccccc2)cc1)CCC(=O)O.Cl [SC57461]
[1]
  inhibition of ionophore-induced LTB4 production: caused inhibition
[2]
  inhibition of ionophore-induced LTB4 production: caused inhibition
[3]
  colitis symptoms: significantly improved colitis symptoms
